Experimental data from article PMC6345968, “Structural basis for species-selective targeting of Hsp90 in a pathogenic fungus” (Nature Communications, 2019).
Converted amounts (≈) assume the structure as drawn. Like-named read-outs stand apart in the source and are kept apart here.

Experiments:
[1] = tested on: S. cerevisiae expressing C. albicans Hsp90; experiment: Broth microdilution growth inhibition (MIC), yeast with C. albicans Hsp90 as sole Hsp90; format: cell-based, Saccharomyces cerevisiae
Description: (§1) A critical consideration in the development of an effective antifungal is not just target binding, but also access to the target across microbial cell membranes and cell walls. Therefore, we evaluated the potency and selectivity of oxime analogs using drug susceptibility assays. We used strains of S. cerevisiae where both endogenous genes encoding isoforms of Hsp90 have been disrupted and growth is solely dependent upon C. albicans or human Hsp90 isoforms.
(§2) Antifungal tolerance and resistance were determined in flat bottom, 96-well microtiter plates using a modified broth microdilution protocol as described[8],[10]. All Hsp90 inhibitors were formulated in dimethyl sulfoxide (DMSO, Sigma Aldrich Co.); fluconazole was dissolved in sterile ddH2O. Each strain was tested in duplicate on at least two occasions. […] To test for fungicidal activity, cultures from MIC plates were spotted on YPD agar plates using a spotter (Frogger, V&P Scientific, Inc). Plates were photographed after 48 h of incubations at 30 °C.

Hsp90 in HEPG2 lysate = settings: for FP signal: raw
[2] = biological target: T1, Hsp90 in C. albicans (SC5314) lysate (Candida albicans, UniProt P46598); experiment: biochemical; format: binding; settings: for FP signal: raw
T1 construct: endogenous in cells; host or cells: C. albicans SC5314 whole-cell lysate
T1 sequence (P46598 whole entry): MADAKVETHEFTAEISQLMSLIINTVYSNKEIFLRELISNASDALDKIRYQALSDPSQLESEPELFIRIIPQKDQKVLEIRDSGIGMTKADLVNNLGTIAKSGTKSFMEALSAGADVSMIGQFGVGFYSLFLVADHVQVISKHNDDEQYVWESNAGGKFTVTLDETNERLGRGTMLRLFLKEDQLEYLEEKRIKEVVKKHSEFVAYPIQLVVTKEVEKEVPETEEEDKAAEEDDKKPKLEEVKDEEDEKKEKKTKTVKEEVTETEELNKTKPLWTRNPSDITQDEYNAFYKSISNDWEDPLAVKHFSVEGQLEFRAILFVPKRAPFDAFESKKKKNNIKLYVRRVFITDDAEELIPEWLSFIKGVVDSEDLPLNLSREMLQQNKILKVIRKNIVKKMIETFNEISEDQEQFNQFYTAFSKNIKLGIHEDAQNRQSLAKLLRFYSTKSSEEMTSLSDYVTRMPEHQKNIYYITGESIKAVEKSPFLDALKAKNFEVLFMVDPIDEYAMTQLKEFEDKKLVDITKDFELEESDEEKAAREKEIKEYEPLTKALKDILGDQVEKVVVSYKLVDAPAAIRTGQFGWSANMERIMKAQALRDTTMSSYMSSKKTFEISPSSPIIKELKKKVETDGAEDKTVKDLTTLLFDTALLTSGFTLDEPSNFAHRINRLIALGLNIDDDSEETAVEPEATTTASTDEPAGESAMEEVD

[3] = tested on: C. albicans reporter strain CaLC922; format: cell-based, Candida albicans; settings: 6-h exposure
Method: In addition to effects on host immune function, we also examined activation of the evolutionarily conserved heat-shock response by CMLD013075.
Activation of the response in C. albicans was also measured in 96-well format using a reporter strain (CaLC922) engineered with HSP70 promoter elements driving expression of the LacZ gene from Streptococcus thermophilus integrated at the HSP70 locus with the URA3 marker for selection. […]

Raw264.7 macrophages = experiment: Phagocytosis of GFP C. albicans by macrophages, flow cytometry; format: cell-based, mouse; settings: 2 h pre-treatment
Method: Compromise of host immune function and other target-related toxicities preclude the use of non-species-selective Hsp90 inhibitors in the treatment of fungal infections. Host defense against invasive infection relies heavily on the ingestion and destruction of C. albicans by innate immune cells, such as macrophages. […] After an additional two hours, phagocytosis of the fluorescently labeled fungi was measured by flow cytometry. […] This Hsp90-dependent morphogenetic program has an important role in the organism’s virulence and interactions with host immune effectors such as macrophages.
The ingestion of GFP-marked C. albicans CaCi-2 (CaLC867, Table S4) by mouse macrophages was monitored using flow cytometry. Raw264.7 macrophage cultures were pre-treated with various concentrations of Hsp90 inhibitors for 2 h at 37 °C and then infected with fungus at a multiplicity of infection of ~2 for an additional 2 h. Wells were harvested by trypsinization and resultant cell suspensions incubated with Guava ViaCount reagent per manufacturer’s recommendation (Millipore Sigma, Cat #4000-0040). Red fluorescent signal was used to identify macrophages while green fluorescent signal identified the fungus. Dual positive (red and green) events with appropriate forward- and side-scatter parameters were quantitated as representative of ingestion of fungus by a macrophage. […]

C. albicans CaCi-2 = experiment: Checkerboard with fluconazole, Bliss independence; format: cell-based, Candida albicans; settings: 48 hours
Method: Each colored box represents the mean of duplicate determinations. […] Error bars, SD.
as §2

C. albicans SN95 = experiment: Growth inhibition in culture; format: cell-based, Candida albicans; settings: 48-hour exposure
Description: (§3) We began by measuring inhibition of C. albicans growth in culture.
(§4) Each colored box represents the mean of duplicate determinations. Color scale for relative growth is provided to far right of panel, green: no inhibition to black: complete inhibition. […] Cultures were then fixed and stained by Periodic Acid-Schiff (PAS) technique to visualize fungal burden (dark red/purple signal) and underlying human cells (light pink signal). Representative fields from conventional light photomicrographs are presented at the same magnification in all panels. The experiment was repeated in two independent biological replicates to confirm results. Scale bar, 100 μm
as §2

[4] = tested on: C. albicans clinical isolate CaCi-2; experiment: Growth inhibition in culture; format: cell-based, Candida albicans; settings: 48-hour exposure
Description: as §3, §4, §2

[5] = tested on: S. cerevisiae expressing human Hsp90α; format: cell-based, Saccharomyces cerevisiae; settings: isogenic strains
Description: as §1, §2

C. albicans Hsp90 [6] = biological target: T2, C. albicans Hsp90 (Candida albicans, UniProt P46598); experiment: ATPase activity, Michaelis-Menten / Lineweaver-Burk; format: biochemical; design: the core ATPase activity of purified full-length homodimers from each species; 6x-His (pRSET-A) (N); made in house; host or cells: E. coli RIL; settings: γ-32P-labeled ATP
T2 sequence (P46598 whole entry): as above
Description: 1151 Biochemical characterization of C. albicans Hsp90. a, Binding of C. albicans Hsp90 to its
1152 natural ligand ATP. b, Michaelis-Menten plot correlating the rate of ATP hydrolysis by C.
1153 albicans Hsp90 with concentration of substrate. Fractional cleavage of γ-32P-labeled ATP is
1154 plotted against ATP concentration. c, Lineweaver-Burk plot performed to define Km and kcat for
1155 the ATPase activity of C. albicans Hsp90. d, Comparison of parameters determined for C.
1156 albicans Hsp90 with previously published data for homologous human and yeast (S. cerevisiae)

S. cerevisiae Hsp90 [7] = biological target: S. cerevisiae Hsp90; design: method as in Owen, B. A. L. et al. J. Biol. Chem. 277, 7086–7091 (2002); settings: ref Owen, B. A. L. et al. J. Biol. Chem. 277, 7086–7091 (2002); read-out: Kd for ATP; cited from earlier work
S. cerevisiae Hsp90 [8] = tested on: S. cerevisiae Hsp90; design: method as in Owen, B. A. L. et al. J. Biol. Chem. 277, 7086–7091 (2002); settings: ref Owen, B. A. L. et al. J. Biol. Chem. 277, 7086–7091 (2002); read-out: Km (ATP); cited from earlier work
human Hsp90 [9] = settings: read-out: Km (ATP); ref Owen, B. A. L. et al. J. Biol. Chem. 277, 7086–7091 (2002); cited from earlier work
human Hsp90 [10] = biological target: human Hsp90; design: method as in Owen, B. A. L. et al. J. Biol. Chem. 277, 7086–7091 (2002); settings: ref Owen, B. A. L. et al. J. Biol. Chem. 277, 7086–7091 (2002); read-out: Kd for ATP; cited from earlier work
C. albicans Hsp90 [11] = biological target: T2, C. albicans Hsp90; experiment: ATP binding by intrinsic tryptophan fluorescence quenching; settings: read-out: Kd for ATP; purified full-length Hsp90
Description: tryptophan fluorescence quenching by ligands.
Intrinsic tryptophan fluorescence was
Difference in intrinsic fluorescence of
assuming single-site specific binding.

[12] = SC5314 lysate, 1.372 nM compound
[13] = SC5314 lysate, 4.115 nM compound
[14] = SC5314 lysate, 12.346 nM compound
[15] = SC5314 lysate, 37.037 nM compound
[16] = SC5314 lysate, 111.111 nM compound
[17] = SC5314 lysate, 333.333 nM compound
[18] = SC5314 lysate, 1000 nM compound
[19] = SC5314 lysate, 3000 nM compound

C[C@@H]1C[C@@H]2O[C@@H]2/C=C\C=C\C(=NOCc2ccccc2Cl)Cc2c(Cl)c(O)cc(O)c2C(=O)O1 [compound 4]
MIC [1]: 2.6 µM (≈ 1.31 µg/mL)
Ratio rel. GdA (HepG2) (Hsp90 in HEPG2 lysate; EC50 / EC50 of GdA in HepG2 lysate): 90.1713
Ratio rel. GdA (HepG2) (Hsp90 in HEPG2 lysate; EC50 relative to GdA, HEPG2 lysate): 90.1713
FP signal, Fxn Control (Hsp90 in HEPG2 lysate; HEPG2 lysate, log concentration 0.137354 (1.372 nM)): 1.0099
FP signal, Fxn Control (Hsp90 in HEPG2 lysate; HEPG2 lysate, log concentration 0.61437 (4.115 nM)): 1.0198
FP signal, Fxn Control (Hsp90 in HEPG2 lysate; HEPG2 lysate, log concentration 1.09153 (12.346 nM)): 1.0099
FP signal, Fxn Control (Hsp90 in HEPG2 lysate; HEPG2 lysate, log concentration 1.56864 (37.037 nM)): 1.0099
FP signal, Fxn Control (Hsp90 in HEPG2 lysate; HEPG2 lysate, log concentration 2.04576 (111.111 nM)): 0.9901
FP signal, Fxn Control (Hsp90 in HEPG2 lysate; HEPG2 lysate, log concentration 2.52288 (333.333 nM)): 0.9158
FP signal, Fxn Control (Hsp90 in HEPG2 lysate; HEPG2 lysate, log concentration 3 (1000 nM)): 0.6881
FP signal, Fxn Control (Hsp90 in HEPG2 lysate; HEPG2 lysate, log concentration 3.47712 (3000 nM)): 0.2178
FP signal, Fxn Control (Hsp90 in HEPG2 lysate; HEPG2 lysate, log concentration -0.340084 (0.457 nM)): 1.0099
FP signal (raw) (Hsp90 in HEPG2 lysate; HepG2 lysate, 0.457 nM): 204
FP signal (Hsp90 in HEPG2 lysate; HepG2 lysate, 0.457 nM compound): 204
FP signal (raw) (Hsp90 in HEPG2 lysate; HepG2 lysate, 1.372 nM): 204
FP signal (Hsp90 in HEPG2 lysate; HepG2 lysate, 1.372 nM compound): 204
FP signal (raw) (Hsp90 in HEPG2 lysate; HepG2 lysate, 4.115 nM): 206
FP signal (Hsp90 in HEPG2 lysate; HepG2 lysate, 4.115 nM compound): 206
FP signal (raw) (Hsp90 in HEPG2 lysate; HepG2 lysate, 12.346 nM): 204
FP signal (Hsp90 in HEPG2 lysate; HepG2 lysate, 12.346 nM compound): 204
FP signal (raw) (Hsp90 in HEPG2 lysate; HepG2 lysate, 37.037 nM): 204
FP signal (Hsp90 in HEPG2 lysate; HepG2 lysate, 37.037 nM compound): 204
FP signal (raw) (Hsp90 in HEPG2 lysate; HepG2 lysate, 111.111 nM): 200
FP signal (Hsp90 in HEPG2 lysate; HepG2 lysate, 111.111 nM compound): 200
FP signal (raw) (Hsp90 in HEPG2 lysate; HepG2 lysate, 333.333 nM): 185
FP signal (Hsp90 in HEPG2 lysate; HepG2 lysate, 333.333 nM compound): 185
FP signal (raw) (Hsp90 in HEPG2 lysate; HepG2 lysate, 1000 nM): 139
FP signal (Hsp90 in HEPG2 lysate; HepG2 lysate, 1000 nM compound): 139
FP signal (raw) (Hsp90 in HEPG2 lysate; HepG2 lysate, 3000 nM): 44
FP signal (Hsp90 in HEPG2 lysate; HepG2 lysate, 3000 nM compound): 44
EC50 (Hsp90 in HEPG2 lysate; HepG2 lysate, oxime panel experiment 220817): 2 µM
normalized fungal selectivity in lysates ([2]; C. albicans SC5314 vs HEPG2 lysate, FP): 2.9 fold
EC50 ([2]; EC50, SC5314 lysate, not normalized, oxime panel experiment 220817): 0.531 µM
Ratio re. GdA ([2]; EC50 relative to GdA, SC5314 lysate): 31.1993
FP signal relative to 0 nM ([2]; SC5314 lysate, 0.457 nM compound): 0.9904
FP signal (raw) ([2]; SC5314 lysate, 1.372 nM): 208
FP signal relative to 0 nM [2, 12]: 1
FP signal [2, 12]: 208
FP signal (raw) ([2]; SC5314 lysate, 4.115 nM): 207
FP signal relative to 0 nM [2, 13]: 0.9952
FP signal [2, 13]: 207
FP signal (raw) ([2]; SC5314 lysate, 12.346 nM): 202
FP signal relative to 0 nM [2, 14]: 0.9712
FP signal [2, 14]: 202
FP signal (raw) ([2]; SC5314 lysate, 37.037 nM): 199
FP signal relative to 0 nM [2, 15]: 0.9567
FP signal [2, 15]: 199
FP signal (raw) ([2]; SC5314 lysate, 111.111 nM): 186
FP signal relative to 0 nM [2, 16]: 0.8942
FP signal [2, 16]: 186
FP signal (raw) ([2]; SC5314 lysate, 333.333 nM): 145
FP signal relative to 0 nM [2, 17]: 0.6971
FP signal [2, 17]: 145
FP signal (raw) ([2]; SC5314 lysate, 1000 nM): 75
FP signal relative to 0 nM [2, 18]: 0.3606
FP signal [2, 18]: 75
FP signal (raw) ([2]; SC5314 lysate, 3000 nM): 39
FP signal relative to 0 nM [2, 19]: 0.1875
FP signal [2, 19]: 39
HepG2/SC5314 ([2]; ratio of GdA-normalized EC50s, human over fungal lysate): 2.89
HepG2/SC5314 ([2]; ratio of GdA-relative EC50 ratios, HepG2 over SC5314): 2.89

CC(C)c1cc(-c2n[nH]c(=O)n2-c2ccc3c(ccn3C)c2)c(O)cc1O [ganetespib, reference compound]
heat-shock reporter activation [3]: neither ganetespib nor radicicol induced the reporter to a measurable extent
heat-shock reporter activation (293T reporter cells): concentration-dependent reporter activation

C[C@@H]1C[C@H]2O[C@@H]2/C=C\C=C\C(=O)Cc2c(Cl)c(O)cc(O)c2C(=O)O1 [radicicol, reference compound]
growth inhibition ([1]; twofold dilution series, heat map): significantly inhibit growth
effect on engulfment of C. albicans (Raw264.7 macrophages): Neither compound impaired engulfment
Bliss synergy δ with fluconazole (C. albicans CaCi-2): 22.6
heat-shock reporter activation (293T reporter cells): concentration-dependent reporter activation
single-agent growth inhibition (C. albicans SN95): comparable single-agent activity
single-agent growth inhibition [4]: comparable single-agent activity
activity compared with strain expressing C. albicans Hsp90 [5]: converse

Nc1ncnc2c1ncn2[C@@H]1O[C@H](COP(=O)(O)OP(=O)(O)OP(=O)(O)O)[C@@H](O)[C@H]1O [ATP]
Km (C. albicans Hsp90 [6]): 533 µM
Kd (S. cerevisiae Hsp90 [7]): 132 µM
Km (S. cerevisiae Hsp90 [8]): 511 µM
Km (human Hsp90 [9]): 324 µM
Kd (human Hsp90 [10]): 240 µM
Kd (C. albicans Hsp90 [11]): 125 µM
